Results on 17 compounds are retold here after ChEMBL document CHEMBL5107956, “Natural products from mangrove sediments-derived microbes: Structural diversity, bioactivities, biosynthesis, and total synthesis” (Eur J Med Chem, 2022).

For one experiment, the system named is Bel-7402. The experiment is described as follows: Cytotoxicity against human Bel-7402 cells assessed as cell growth inhibition measured after 72 hrs by MTT assay. Format: functional, cell-based. Particulars: Bel-7402, 72 h. (In general: Tetrazolium assays rely on reduction of a dye to a coloured formazan, in cell work by metabolically active cells.)
For a further experiment, the system named is A549. The experiment is described as follows: Cytotoxicity against human A549 cells assessed as cell growth inhibition measured after 72 hrs by MTT assay. Format: functional, cell-based. Particulars: A549, 72 h.
For a further experiment, the system named is HeLa. The experiment is described as follows: Cytotoxicity against human HeLa cells assessed as cell growth inhibition by MTT assay. Type of experiment: functional, cell-based.
Experiment [1] in a line: Cytotoxicity against human ACC-MESO-1 cells assessed as cell growth inhibition by MTT assay. Format: functional, cell-based.
The subject of another experiment is Salmonella enterica. Nature of the experiment: Antibacterial activity against Salmonella enterica ATCC 6539 assessed as bacterial cell growth inhibition measured after 24 hrs by Bactiter-glo assay. Format: functional.
In a further experiment the test system is SF-268. The experiment is described as follows: Cytotoxicity against human SF-268 cells assessed as cell growth inhibition incubated for 48 hrs by MTT assay. Format: functional, cell-based. Particulars: SF-268, 48 h.
A further experiment has as its system NCI-H460. Nature of the experiment: Cytotoxicity against human NCI-H460 cells assessed as cell growth inhibition incubated for 48 hrs by MTT assay. Format: functional, cell-based. Particulars: NCI-H460, 48 h.
The next experiment has as its system MCF7. The experiment is described as follows: Cytotoxicity against human MCF7 cells assessed as cell growth inhibition incubated for 48 hrs by MTT assay. Format: functional, cell-based. Particulars: MCF7, 48 h.
In a further experiment the test system is HL-60. Nature of the experiment: Antiproliferative activity against human HL-60 cells assessed as cell growth inhibition by MTT assay. Type of experiment: functional, cell-based.
Another experiment relates to P388. The experiment is described as follows: Cytotoxicity against mouse P388 cells assessed as cell growth inhibition by MTT assay. Type of experiment: functional, cell-based.
In a further experiment the test system is SMMC-7721. Nature of the experiment: Antiproliferative activity against human SMMC-7721 cells assessed as cell growth inhibition. Format: functional, cell-based.
The test system of another experiment is ACHN. The experiment is described as follows: Antiproliferative activity against human ACHN cells assessed as cell growth inhibition. Format: functional, cell-based.
Experiment [2] has as its target Phosphotyrosine-protein phosphatase PTPB (Mycobacterium tuberculosis, UniProt P96830). Nature of the experiment: Inhibition of N-terminal His6-tagged Mycobacterium tuberculosis H37Rv PTPB using 6,8-difluoromethylumbelliferyl phosphate as substrate incubated for 30 mins by fluorescence based analysis.
In the next experiment the test system is RAW264.7. The experiment is described as follows: Antiinflammatory activity against LPS-induced mouse RAW264.7 cells assessed as inhibition of NO production measured after 24 hrs […]. Format: functional, cell-based. The following applies: RAW264.7, 24 h.
In experiment [3] the test system is Limimaricola hongkongensis. The experiment is described as follows: Antibacterial activity against Limimaricola hongkongensis assessed as bacterial growth inhibition measured after 24 hrs by optical density based analysis. Format: functional.
A further experiment relates to Staphylococcus aureus. The experiment is described as follows: Antibacterial activity against Staphylococcus aureus assessed as bacterial growth inhibition measured after 24 hrs by optical density based analysis. Type of experiment: functional.
In the next experiment the test system is K562. Nature of the experiment: Cytotoxicity against human K562 cells assessed as inhibition of cell growth by MTT assay. Format: functional, cell-based.
Experiment [4] deals with Pseudopestalotiopsis theae. The experiment is described as follows: Antifungal activity against Pestalotiopsis theae assessed as fungal cell growth inhibition. The following applies: read-out: ED50 (the source's name). Format: functional.
Experiment [5] deals with Angiotensin-converting enzyme (Homo sapiens, UniProt P12821). The experiment is described as follows: Inhibition of ACE (unknown origin) using hippuryl-histidyl-leucine as substrate pre-incubated with compound for 10 mins followed by substrate addition measured after 60 mins by HPLC analysis.
Sequence of Angiotensin-converting enzyme (P12821 whole entry): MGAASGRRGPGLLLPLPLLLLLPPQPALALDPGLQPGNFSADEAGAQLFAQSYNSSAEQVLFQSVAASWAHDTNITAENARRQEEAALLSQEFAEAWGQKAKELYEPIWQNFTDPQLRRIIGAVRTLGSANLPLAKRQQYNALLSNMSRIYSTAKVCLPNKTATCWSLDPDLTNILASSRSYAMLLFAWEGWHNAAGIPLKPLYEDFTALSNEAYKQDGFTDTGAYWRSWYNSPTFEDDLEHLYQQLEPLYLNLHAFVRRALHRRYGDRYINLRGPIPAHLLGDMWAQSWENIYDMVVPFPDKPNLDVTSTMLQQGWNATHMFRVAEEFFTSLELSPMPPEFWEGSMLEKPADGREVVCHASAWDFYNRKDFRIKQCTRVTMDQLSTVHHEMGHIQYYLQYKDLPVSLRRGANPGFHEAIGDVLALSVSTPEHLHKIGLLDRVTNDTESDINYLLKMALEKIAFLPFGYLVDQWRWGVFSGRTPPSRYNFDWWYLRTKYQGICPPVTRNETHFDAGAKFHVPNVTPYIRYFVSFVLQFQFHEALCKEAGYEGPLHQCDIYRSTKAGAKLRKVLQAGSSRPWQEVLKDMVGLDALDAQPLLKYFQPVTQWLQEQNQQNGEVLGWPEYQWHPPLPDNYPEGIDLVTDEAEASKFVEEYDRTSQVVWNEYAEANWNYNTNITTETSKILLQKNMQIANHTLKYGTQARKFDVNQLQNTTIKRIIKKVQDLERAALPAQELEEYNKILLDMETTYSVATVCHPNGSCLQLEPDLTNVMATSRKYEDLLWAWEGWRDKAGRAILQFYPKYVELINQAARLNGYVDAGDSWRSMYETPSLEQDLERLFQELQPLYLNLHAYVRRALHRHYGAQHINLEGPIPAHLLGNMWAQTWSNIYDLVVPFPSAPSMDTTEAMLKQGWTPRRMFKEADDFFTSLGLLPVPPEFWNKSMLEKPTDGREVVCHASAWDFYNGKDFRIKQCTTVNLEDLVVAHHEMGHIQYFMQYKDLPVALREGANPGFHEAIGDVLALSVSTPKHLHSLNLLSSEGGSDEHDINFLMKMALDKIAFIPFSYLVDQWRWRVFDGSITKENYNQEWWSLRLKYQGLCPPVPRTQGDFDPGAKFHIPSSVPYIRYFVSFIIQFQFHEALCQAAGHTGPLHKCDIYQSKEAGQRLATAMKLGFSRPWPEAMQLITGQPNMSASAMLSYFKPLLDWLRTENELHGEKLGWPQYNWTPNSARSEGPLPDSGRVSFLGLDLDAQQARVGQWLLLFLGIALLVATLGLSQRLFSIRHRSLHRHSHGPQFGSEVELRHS
A short description of experiment [6]: Inhibition of influenza A virus Neuraminidase N3 incubated for 10 mins by fluorescence based analysis.
Experiment [7] has as its system Colletotrichum gloeosporioides. The experiment is described as follows: Antifungal activity against Colletotrichum gloeosporioides assessed as inhibition of fungal growth measured after 72 hrs by micro plate reader analysis. Format: functional.
The target of another experiment is 20S proteasome. The experiment is described as follows: Inhibition of 20S proteasome (unknown origin) by fluorescence based assay. Type of experiment: protein-complex assay, Homo sapiens.
Experiment [8] relates to Trypanosoma brucei brucei. The experiment is described as follows: Antitrypanosomal activity against Trypanosoma brucei brucei GUTat3.1 assessed as parasite growth inhibition measured after 72 hrs by alamar blue staining based analysis. Particulars: GUTat3.1, 72 h. Format: functional, organism-based.

In brackets after ≈: the same amount, converted by molar mass.

Sequence of Phosphotyrosine-protein phosphatase PTPB (P96830 whole entry): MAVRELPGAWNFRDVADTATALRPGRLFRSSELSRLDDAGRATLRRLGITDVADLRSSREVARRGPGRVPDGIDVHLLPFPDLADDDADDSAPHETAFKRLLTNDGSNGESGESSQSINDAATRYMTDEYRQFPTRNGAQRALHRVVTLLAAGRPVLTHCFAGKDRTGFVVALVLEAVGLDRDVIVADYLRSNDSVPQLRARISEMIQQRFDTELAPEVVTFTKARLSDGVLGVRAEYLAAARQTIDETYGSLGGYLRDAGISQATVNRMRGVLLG

On to `C=CC(C)(C)c1[nH]c2c(CC=C(C)C)cc(CC=C(C)C)cc2c1C[C@@H]1NC(=O)C(=C)NC1=O`, for which the IC50 was found to be 4.2 µM in the experiment on Bel-7402 and 1.43 µM in the experiment on A549.

For `CC(/C=C/C1CC1)=C\[C@@H]1[C@@H](OC(=O)CC(C)C)[C@](C)(O)[C@@H]2[C@H]3O[C@H]3CCN12`, the IC50 was 29 µM in the experiment with HeLa and 39 µM in [1].

Take `Cc1cc2c3c(c1C)C(C)(C)CCn3c(=O)c(=O)n2C[C@H](O)[C@H](O)[C@H](O)CO`: in the experiment with Salmonella enterica, the MIC was 12.4 µM (≈ 4.87 µg/mL).

Turning to `CC(C)[C@@H](C)/C=C/[C@@H](C)[C@H]1CC[C@H]2C3=CC(=O)N(CCO)[C@@]3(O)CC[C@]12C`, the IC50 in the experiment with SF-268 turned out to be 13 µg/mL (≈ 34.6 µM); in the experiment with NCI-H460, 23.5 µg/mL (≈ 62.6 µM); in the experiment with MCF7, 18.1 µg/mL (≈ 48.2 µM).

For the compound `C=CC(C)(C)c1[nH]c2ccccc2c1/C=C1\NC(=O)C2(CC(C)C=CC2CCc2c(O)cc(CC=C(C)C)c(O)c2C=O)NC1=O` (stereo not given), the IC50 in the experiment on HL-60 turned out to be 4.8 µM; with P388, 1.83 µM.

For the compound `Cc1ccc(OC(=O)CCN)cc1`, the IC50 with SMMC-7721 was 22 µg/mL (≈ 123 µM).

As for `COc1nc(C/C=C(\C)C/C(C)=C/C(C)=C/[C@@H](C)[C@@H](O)/C(C)=C/C(C)=O)cc(O)c1OC`, in the experiment with ACHN, the IC50 is 0.02 µM.

Regarding `CC(C)[C@@H](C)/C=C/[C@@H](C)[C@@]1(C)C[C@H]2C3=C4[C@@H](C=C5C[C@@H](O)CC[C@]5(C)[C@H]4CC[C@@]31C)[C@H](C(=O)O)[C@H]2C(=O)O`, the IC50 came to 15.1 µM in experiment [2] and 4.5 µM in the experiment on RAW264.7.

Consider `CC(O)[C@H](NC(=O)c1cccc(NC=O)c1O)C(=O)O[C@@H](C)[C@H](OC(=O)Cc1ccccc1)[C@@H](C)C(=O)O` (stereo not given in full), for which the MIC turned out to be 8 µg/mL (≈ 15.1 µM) in [3] and 32 µg/mL (≈ 60.3 µM) in the experiment with Staphylococcus aureus.

Consider `C[C@@H]1OC(=O)[C@@H](O)[C@@H](C)OC(=O)[C@H](C)[C@H]1O`, for which, in the experiment on K562, the IC50 was 1.36 µM.

As to `CC(=C\C(=O)O)/C=C(\C)CC(C)/C=C/CC[C@H]1OC(=O)[C@@H]1CO` (stereo not given in full), the EC50 in experiment [4] came to 38.1 µg/mL (≈ 118 µM).

As to `CC(=O)C[C@@]1(O)C(=O)C2=C3O[C@H](C)C(C)(C)[C@]3(O)C(=O)c3c(C)cc(O)c(c32)C1=O`, the half-maximal inhibitory concentration (IC50) in experiment [5] was found to be 3.1 µM.

`CN1C(=O)c2cc(O)ccc2NC(=O)C12O[C@H]2c1ccccc1` (stereo not given in full) yielded a concentration for half-maximal inhibition (IC50) in [6] of 5.02 µM.

As for `CC(C)[C@@H](C)/C=C\[C@@H](C)[C@@]1(C)C[C@H]2C3=C4[C@@H](C=C5C[C@@H](O)CC[C@]5(C)[C@H]4CC[C@@]31C)[C@H](C(=O)O)[C@H]2C(=O)O`, the IC50 was found to be 30.1 µM in [2] and 3.6 µM in the experiment on RAW264.7.

Turning to `CC1=CC[C@]23C[C@@H]1C[C@@](C)(O)[C@H]2[C@H](O)C[C@@H]3C`, in [7], the MIC was determined as 1 µg/mL (≈ 4.23 µM).

`CC(C)[C@H](O)[C@@]12NC(=O)[C@H](C)[C@@H]1OC2=O` [OMURALIDE] registered a half-maximal inhibitory concentration (IC50) on 20S proteasome of 0.049 µM.

Regarding `CCCC1C(O)=C2CCC3(C)CC(C)C(O3)C(C)C(O)C(C)C(=O)CC1OC2=O` (stereo not given), in experiment [8], the IC50 was found to be 2.4 µg/mL (≈ 5.87 µM).

As a reminder, the IC50 is the concentration that gives 50% inhibition. In general, MIC refers to the lowest concentration that inhibits growth of the organism.
